Source: the NIST ThermoML archive (doi:10.1016/j.jct.2016.03.021)
± gives the expanded uncertainty stated by the source.

Assay: wn = mass fraction of the nth substance listed
Settings: Liquid; for viscosity: Falling or rolling sphere viscometry; for mass density: Vibrating tube method
[1] = 353.15 K, 120000 kPa, w1 = 0.3005

Q: With `NCCO` [2-aminoethan-1-ol] + O as the compound, how does the viscosity (353.15 K, 120000 kPa, w1 = 0.2) read?
A: 0.644 ± 0.02 mPa·s

Q: What about the viscosity [1] of the same compound?
A: 0.861 ± 0.027 mPa·s

Q: What about the viscosity (353.15 K, 120000 kPa, w1 = 0.4001) of the same compound?
A: 1.128 ± 0.035 mPa·s

Q: What about the mass density (353.15 K, 120000 kPa, w1 = 0.1001) of the same compound?
A: 1021.2 ± 0.7 kg/m3

Q: And the mass density (353.15 K, 120000 kPa, w1 = 0.2)?
A: 1021.6 ± 0.7 kg/m3

Q: What about the mass density [1] of the same compound?
A: 1023.3 ± 0.7 kg/m3

Q: What about the mass density (353.15 K, 120000 kPa, w1 = 0.4) of the same compound?
A: 1025.2 ± 0.7 kg/m3

Q: What about the mass density (373.15 K, 100 kPa, w1 = 0.1001) of the same compound?
A: 960.8 ± 0.7 kg/m3

Q: What about the mass density (373.15 K, 100 kPa, w1 = 0.2) of the same compound?
A: 962.5 ± 0.7 kg/m3

Q: What about the mass density (373.15 K, 100 kPa, w1 = 0.3005) of the same compound?
A: 964.5 ± 0.7 kg/m3

Q: What about the mass density (373.15 K, 100 kPa, w1 = 0.4) of the same compound?
A: 966.6 ± 0.7 kg/m3

Q: And the mass density (373.15 K, 500 kPa, w1 = 0.1001)?
A: 961 ± 0.7 kg/m3

Q: And the mass density (373.15 K, 500 kPa, w1 = 0.2)?
A: 962.7 ± 0.7 kg/m3

Q: And the mass density (373.15 K, 500 kPa, w1 = 0.3005)?
A: 964.8 ± 0.7 kg/m3

Q: What about the mass density (373.15 K, 500 kPa, w1 = 0.4) of the same compound?
A: 966.9 ± 0.7 kg/m3

Q: What about the mass density (373.15 K, 1000 kPa, w1 = 0.1001) of the same compound?
A: 961.3 ± 0.7 kg/m3

Q: And the mass density (373.15 K, 1000 kPa, w1 = 0.2)?
A: 962.9 ± 0.7 kg/m3

Q: And the mass density (373.15 K, 1000 kPa, w1 = 0.3005)?
A: 965 ± 0.7 kg/m3

Q: And the mass density (373.15 K, 1000 kPa, w1 = 0.4)?
A: 967.1 ± 0.7 kg/m3

Q: And the mass density (373.15 K, 2000 kPa, w1 = 0.1001)?
A: 961.8 ± 0.7 kg/m3

Q: What about the mass density (373.15 K, 2000 kPa, w1 = 0.2) of the same compound?
A: 963.4 ± 0.7 kg/m3

Q: And the mass density (373.15 K, 2000 kPa, w1 = 0.3005)?
A: 965.5 ± 0.7 kg/m3

Q: And the mass density (373.15 K, 2000 kPa, w1 = 0.4)?
A: 967.6 ± 0.7 kg/m3

Q: And the mass density (373.15 K, 5000 kPa, w1 = 0.1001)?
A: 963.1 ± 0.7 kg/m3

Q: What about the mass density (373.15 K, 5000 kPa, w1 = 0.2) of the same compound?
A: 964.7 ± 0.7 kg/m3

Q: What about the mass density (373.15 K, 5000 kPa, w1 = 0.3005) of the same compound?
A: 966.8 ± 0.7 kg/m3

Q: What about the mass density (373.15 K, 5000 kPa, w1 = 0.4) of the same compound?
A: 968.9 ± 0.7 kg/m3

Q: And the mass density (373.15 K, 10000 kPa, w1 = 0.1001)?
A: 965.5 ± 0.7 kg/m3

Q: And the mass density (373.15 K, 10000 kPa, w1 = 0.2)?
A: 966.9 ± 0.7 kg/m3

Q: What about the mass density (373.15 K, 10000 kPa, w1 = 0.3005) of the same compound?
A: 969 ± 0.7 kg/m3

Q: And the mass density (373.15 K, 10000 kPa, w1 = 0.4)?
A: 971.1 ± 0.7 kg/m3

Q: What about the mass density (373.15 K, 15000 kPa, w1 = 0.1001) of the same compound?
A: 967.7 ± 0.7 kg/m3

Q: What about the mass density (373.15 K, 15000 kPa, w1 = 0.2) of the same compound?
A: 969.1 ± 0.7 kg/m3

Q: What about the mass density (373.15 K, 15000 kPa, w1 = 0.3005) of the same compound?
A: 971.2 ± 0.7 kg/m3

Q: And the mass density (373.15 K, 15000 kPa, w1 = 0.4)?
A: 973.3 ± 0.7 kg/m3

Q: What about the mass density (373.15 K, 20000 kPa, w1 = 0.1001) of the same compound?
A: 969.9 ± 0.7 kg/m3

Q: What about the mass density (373.15 K, 20000 kPa, w1 = 0.2) of the same compound?
A: 971.3 ± 0.7 kg/m3

Q: And the mass density (373.15 K, 20000 kPa, w1 = 0.3005)?
A: 973.4 ± 0.7 kg/m3

Q: What about the mass density (373.15 K, 20000 kPa, w1 = 0.4) of the same compound?
A: 975.4 ± 0.7 kg/m3

Q: And the mass density (373.15 K, 30000 kPa, w1 = 0.1001)?
A: 974.4 ± 0.7 kg/m3

Q: And the mass density (373.15 K, 30000 kPa, w1 = 0.2)?
A: 975.6 ± 0.7 kg/m3

Q: What about the mass density (373.15 K, 30000 kPa, w1 = 0.3005) of the same compound?
A: 977.6 ± 0.7 kg/m3

Q: And the mass density (373.15 K, 30000 kPa, w1 = 0.4)?
A: 979.7 ± 0.7 kg/m3

Q: And the mass density (373.15 K, 40000 kPa, w1 = 0.1001)?
A: 978.7 ± 0.7 kg/m3

Q: What about the mass density (373.15 K, 40000 kPa, w1 = 0.2) of the same compound?
A: 979.8 ± 0.7 kg/m3

Q: And the mass density (373.15 K, 40000 kPa, w1 = 0.3005)?
A: 981.7 ± 0.7 kg/m3

Q: And the mass density (373.15 K, 40000 kPa, w1 = 0.4)?
A: 983.8 ± 0.7 kg/m3

Q: And the mass density (373.15 K, 50000 kPa, w1 = 0.1001)?
A: 982.8 ± 0.7 kg/m3

Q: What about the mass density (373.15 K, 50000 kPa, w1 = 0.2) of the same compound?
A: 983.7 ± 0.7 kg/m3

Q: And the mass density (373.15 K, 50000 kPa, w1 = 0.3005)?
A: 985.6 ± 0.7 kg/m3

Q: And the mass density (373.15 K, 50000 kPa, w1 = 0.4)?
A: 987.6 ± 0.7 kg/m3

Q: And the mass density (373.15 K, 60000 kPa, w1 = 0.1001)?
A: 986.8 ± 0.7 kg/m3

Q: And the mass density (373.15 K, 60000 kPa, w1 = 0.2)?
A: 987.7 ± 0.7 kg/m3

Q: And the mass density (373.15 K, 60000 kPa, w1 = 0.3005)?
A: 989.5 ± 0.7 kg/m3

Q: And the mass density (373.15 K, 60000 kPa, w1 = 0.4)?
A: 991.6 ± 0.7 kg/m3

Q: What about the mass density (373.15 K, 70000 kPa, w1 = 0.1001) of the same compound?
A: 990.8 ± 0.7 kg/m3

Q: And the mass density (373.15 K, 70000 kPa, w1 = 0.2)?
A: 991.5 ± 0.7 kg/m3

Q: And the mass density (373.15 K, 70000 kPa, w1 = 0.3005)?
A: 993.3 ± 0.7 kg/m3

Q: And the mass density (373.15 K, 70000 kPa, w1 = 0.4)?
A: 995.2 ± 0.7 kg/m3

Q: And the mass density (373.15 K, 80000 kPa, w1 = 0.1001)?
A: 994.8 ± 0.7 kg/m3

Q: And the mass density (373.15 K, 80000 kPa, w1 = 0.2)?
A: 995.4 ± 0.7 kg/m3

Q: And the mass density (373.15 K, 80000 kPa, w1 = 0.3005)?
A: 997.1 ± 0.7 kg/m3

Q: And the mass density (373.15 K, 80000 kPa, w1 = 0.4)?
A: 999.1 ± 0.7 kg/m3

Q: And the mass density (373.15 K, 90000 kPa, w1 = 0.1001)?
A: 998.5 ± 0.7 kg/m3

Q: And the mass density (373.15 K, 90000 kPa, w1 = 0.2)?
A: 999 ± 0.7 kg/m3

Q: What about the mass density (373.15 K, 90000 kPa, w1 = 0.3005) of the same compound?
A: 1000.8 ± 0.7 kg/m3

Q: And the mass density (373.15 K, 90000 kPa, w1 = 0.4)?
A: 1002.5 ± 0.7 kg/m3

Q: And the mass density (373.15 K, 100000 kPa, w1 = 0.1001)?
A: 1002.2 ± 0.7 kg/m3

Q: And the mass density (373.15 K, 100000 kPa, w1 = 0.2)?
A: 1002.5 ± 0.7 kg/m3

Q: And the mass density (373.15 K, 100000 kPa, w1 = 0.3005)?
A: 1004.2 ± 0.7 kg/m3

Q: What about the mass density (373.15 K, 100000 kPa, w1 = 0.4) of the same compound?
A: 1006 ± 0.7 kg/m3

Q: And the mass density (373.15 K, 110000 kPa, w1 = 0.1001)?
A: 1005.9 ± 0.7 kg/m3

Q: And the mass density (373.15 K, 110000 kPa, w1 = 0.2)?
A: 1006.1 ± 0.7 kg/m3

Q: And the mass density (373.15 K, 110000 kPa, w1 = 0.3005)?
A: 1007.7 ± 0.7 kg/m3

Q: What about the mass density (373.15 K, 110000 kPa, w1 = 0.4) of the same compound?
A: 1009.5 ± 0.7 kg/m3
